Source: US20070128217A1 (priority 2003, published 2007)

Legend:
[1] = system: antibodies in sera from SARS patients (sera 1a, 1b, 2, 6, 37, 62, London, SARS-yellow, SARS-green); type: binding, human; set-up: Binding of serum 6 to linear peptides of protein X1 of SARS-CoV Urbani / Binding of serum 37 to linear peptides of protein X1 of SARS-CoV Urbani / Binding of serum 6 to looped/cyclic peptide (PEPSCAN-ELISA) / Binding of serum 37 to looped/cyclic peptide (PEPSCAN-ELISA) / Binding of serum 37 to looped/cyclic peptides of protein X1 of SARS-CoV Urbani / Binding of serum 6 to linear peptides of protein X2 / Binding of serum 37 to linear peptides of protein X2 / Binding of serum 37 to looped/cyclic peptides of protein X2 of SARS-CoV Urbani / Binding of serum 6 to linear peptides of protein M of SARS-CoV Urbani / Binding of serum 37 to linear peptides of protein M of SARS-CoV Urbani / Binding of serum 6 to looped/cyclic peptides of protein M of SARS-CoV Urbani / Binding of serum 37 to looped/cyclic peptides of protein M of SARS-CoV Urbani / Binding of serum 6 to linear peptides of protein X3 of SARS-CoV Urbani / Binding of serum 37 to linear peptides of protein X3 of SARS-CoV Urbani / Binding of serum 37 to looped/cyclic peptides of protein X3 of SARS-CoV Urbani / Binding of serum 6 to linear peptides of protein X4 of SARS-CoV Urbani / Binding of serum 37 to linear peptides of protein X4 of SARS-CoV Urbani / Binding of serum 37 to looped/cyclic peptides of protein X4 of SARS-CoV Urbani / Binding of serum 6 to linear peptides of protein X5 of SARS-CoV Urbani / Binding of serum 37 to linear peptides of protein X5 of SARS-CoV Urbani / Binding of serum 37 to looped/cyclic peptides of protein X5 of SARS-CoV Urbani / Binding of serum 6 to linear peptides of protein N of SARS-CoV Urbani / Binding of serum 37 to linear peptides of protein N of SARS-CoV Urbani / Binding of serum 6 to linear peptide (PEPSCAN-ELISA) / Binding of serum 1a to looped/cyclic peptides of protein N of SARS-CoV Urbani / Binding of serum 1b to looped/cyclic peptides of protein N of SARS-CoV Urbani / Binding of serum 2 to looped/cyclic peptides of protein N of SARS-CoV Urbani / Binding of serum 6 to looped/cyclic peptides of protein N of SARS-CoV Urbani / Binding of serum 37 to looped/cyclic peptides of protein N of SARS-CoV Urbani / Binding of serum 62 to looped/cyclic peptides of protein N of SARS-CoV Urbani / Binding of serum London to looped/cyclic peptides of protein N of SARS-CoV Urbani / Binding of serum SARS-green to looped/cyclic peptides of protein N of SARS-CoV Urbani: unit not given here
[2] = system: control sera (pooled serum of ten healthy LUMC hospital workers; commercial negative donor pooled serum from the Dutch bloodbank); type: binding, human; set-up: Binding of Control serum LUMC to linear peptides / Binding of Control serum Blood-bank to linear peptides / Binding of Control serum LUMC to looped peptides / Binding of Control Serum Blood-Bank to Looped peptides / Binding of Control serum LUMC to linear peptides of the protein M of SARS-CoV Urbani / Binding of Control serum Blood-bank to linear peptides of the protein M of SARS-CoV Urbani / Binding of Control serum LUMC to looped peptides of the protein M of SARS-CoV Urbani / Binding of Control Serum Blood-Bank to Looped peptides of the protein M of SARS-CoV Urbani: unit not given here
[3] = system: rabbit serum obtained by immunizing a rabbit with the SARS-CoV strain Frankfurt 1; type: binding; set-up: Binding of a rabbit serum to linear peptides / Binding of a rabbit serum to looped peptides / Rabbit serum linear peptides / Rabbit serum looped peptides / Binding of a rabbit serum to linear peptides of protein N of SARS-CoV Urbani (Rabbit serum linear peptides) / Binding of a rabbit serum to looped/cyclic peptides of protein N of SARS-CoV Urbani (Rabbit serum looped peptides): unit not given here

Sequence: TSTHFAFACADGTRH
- Binding of serum 1a to linear peptides of protein X4 of SARS-CoV Urbani [1]: 0.7
- Binding of serum 1a to looped/cyclic peptides of protein X4 of SARS-CoV Urbani [1]: 0.8
- Binding of serum 1b to linear peptides of protein X4 of SARS-CoV Urbani [1]: 0.6
- Binding of serum 1b to looped/cyclic peptides of protein X4 of SARS-CoV Urbani [1]: 0.7
- Binding of serum 2 to linear peptides of protein X4 of SARS-CoV Urbani [1]: 0.5
- Binding of serum 2 to looped/cyclic peptides of protein X4 of SARS-CoV Urbani [1]: 0.6
- Binding of serum 6 to linear peptides of protein X4 of SARS-CoV Urbani [1]: 0.7
- Binding of serum 6 to looped/cyclic peptides of protein X4 of SARS-CoV Urbani [1]: 0.7
- Binding of serum 37 to linear peptides of protein X4 of SARS-CoV Urbani [1]: 0.7
- Binding of serum 37 to looped/cyclic peptides of protein X4 of SARS-CoV Urbani [1]: 0.7
- Binding of serum 62 to linear peptides of protein X4 of SARS-CoV Urbani [1]: 0.8
- Binding of serum 62 to looped/cyclic peptides of protein X4 of SARS-CoV Urbani [1]: 0.8
- Binding of serum London to linear peptides of protein X4 of SARS-CoV Urbani [1]: 0.8
- Binding of serum London to looped/cyclic peptides of protein X4 of SARS-CoV Urbani [1]: 0.4
- Binding of serum SARS-green to linear peptides of protein X4 of SARS-CoV Urbani [1]: 0.6
- Binding of serum SARS-green to looped/cyclic peptides of protein X4 of SARS-CoV Urbani [1]: 0.6
- Binding of serum SARS-yellow to linear peptides of protein X4 of SARS-CoV Urbani [1]: 0.2
- Binding of serum SARS-yellow to looped/cyclic peptides of protein X4 of SARS-CoV Urbani [1]: 0.7
- Binding of Control Serum Blood-Bank to Looped peptides [2]: 0.8
- Binding of Control serum Blood-bank to linear peptides [2]: 0.7
- Binding of Control serum LUMC to linear peptides [2]: 0.8
- Binding of Control serum LUMC to looped peptides [2]: 0.8
- Rabbit serum linear peptides [3]: 0.5
- Rabbit serum looped peptides [3]: 0.7

Sequence: TTDTGIENATFFIFN
- Binding of serum 1a to linear peptides of protein X1 of SARS-CoV Urbani [1]: 0.8
- Binding of serum 1a to looped/cyclic peptides of protein X1 of SARS-CoV Urbani [1]: 0.6
- Binding of serum 1b to linear peptides of protein X1 of SARS-CoV Urbani [1]: 0.5
- Binding of serum 1b to looped/cyclic peptides of protein X1 of SARS-CoV Urbani [1]: 0.6
- Binding of serum 2 to linear peptides of protein X1 of SARS-CoV Urbani [1]: 0.6
- Binding of serum 2 to looped/cyclic peptides of protein X1 of SARS-CoV Urbani [1]: 0.7
- Binding of serum 6 to linear peptides of protein X1 of SARS-CoV Urbani [1]: 0.5
- Binding of serum 6 to looped/cyclic peptides of protein X1 of SARS-CoV Urbani [1]: 0.6
- Binding of serum 37 to linear peptides of protein X1 of SARS-CoV Urbani [1]: 0.6
- Binding of serum 37 to looped/cyclic peptides of protein X1 of SARS-CoV Urbani [1]: 1.0
- Binding of serum 62 to linear peptides of protein X1 of SARS-CoV Urbani [1]: 0.5
- Binding of serum 62 to looped/cyclic peptides of protein X1 of SARS-CoV Urbani [1]: 0.9
- Binding of serum London to linear peptides of protein X1 of SARS-CoV Urbani [1]: 0.3
- Binding of serum London to looped/cyclic peptides of protein X1 of SARS-CoV Urbani [1]: 0.3
- Binding of serum SARS-green to linear peptides of protein X1 of SARS-CoV Urbani [1]: 0.4
- Binding of serum SARS-green to looped/cyclic peptides of protein X1 of SARS-CoV Urbani [1]: 0.6
- Binding of serum SARS-yellow to linear peptides of protein X1 of SARS-CoV Urbani [1]: 0.5
- Binding of serum SARS-yellow to looped/cyclic peptides of protein X1 of SARS-CoV Urbani [1]: 0.5
- Binding of Control Serum Blood-Bank to Looped peptides [2]: 0.8
- Binding of Control serum Blood-bank to linear peptides [2]: 0.6
- Binding of Control serum LUMC to linear peptides [2]: 1.0
- Binding of Control serum LUMC to looped peptides [2]: 0.8
- Binding of a rabbit serum to linear peptides [3]: 0.1
- Binding of a rabbit serum to looped peptides [3]: 0.5

Sequence: TVATSRTLSYYKLGA
- Binding of serum 1a to linear peptides of protein M of SARS-CoV Urbani [1]: 0.7
- Binding of serum 1a to looped/cyclic peptides of protein M of SARS-CoV Urbani [1]: 0.8
- Binding of serum 1b to linear peptides of protein M of SARS-CoV Urbani [1]: 0.6
- Binding of serum 1b to looped/cyclic peptides of protein M of SARS-CoV Urbani [1]: 0.4
- Binding of serum 2 to linear peptides of protein M of SARS-CoV Urbani [1]: 0.7
- Binding of serum 2 to looped/cyclic peptides of protein M of SARS-CoV Urbani [1]: 0.6
- Binding of serum 6 to linear peptides of protein M of SARS-CoV Urbani [1]: 0.6
- Binding of serum 6 to looped/cyclic peptides of protein M of SARS-CoV Urbani [1]: 1.1
- Binding of serum 37 to linear peptides of protein M of SARS-CoV Urbani [1]: 0.8
- Binding of serum 37 to looped/cyclic peptides of protein M of SARS-CoV Urbani [1]: 0.5
- Binding of serum 62 to linear peptides of protein M of SARS-CoV Urbani [1]: 0.8
- Binding of serum 62 to looped/cyclic peptides of protein M of SARS-CoV Urbani [1]: 0.5
- Binding of serum London to linear peptides of protein M of SARS-CoV Urbani [1]: 0.4
- Binding of serum London to looped/cyclic peptides of protein M of SARS-CoV Urbani [1]: 0.3
- Binding of serum SARS-green to linear peptides of protein M of SARS-CoV Urbani [1]: 0.3
- Binding of serum SARS-green to looped/cyclic peptides of protein M of SARS-CoV Urbani [1]: 0.4
- Binding of serum SARS-yellow to linear peptides of protein M of SARS-CoV Urbani [1]: 0.1
- Binding of serum SARS-yellow to looped/cyclic peptides of protein M of SARS-CoV Urbani [1]: 0.5
- Binding of Control Serum Blood-Bank to Looped peptides of the protein M of SARS-CoV Urbani [2]: 0.7
- Binding of Control serum Blood-bank to linear peptides of the protein M of SARS-CoV Urbani [2]: 0.8
- Binding of Control serum LUMC to linear peptides of the protein M of SARS-CoV Urbani [2]: 0.6
- Binding of Control serum LUMC to looped peptides of the protein M of SARS-CoV Urbani [2]: 0.7
- Rabbit serum linear peptides [3]: 0.8
- Rabbit serum looped peptides [3]: 0.2

Sequence: TYQLRARSVSPKLFI
- Binding of serum 1a to linear peptides of protein X4 of SARS-CoV Urbani [1]: 0.8
- Binding of serum 1a to looped/cyclic peptides of protein X4 of SARS-CoV Urbani [1]: 0.9
- Binding of serum 1b to linear peptides of protein X4 of SARS-CoV Urbani [1]: 0.6
- Binding of serum 1b to looped/cyclic peptides of protein X4 of SARS-CoV Urbani [1]: 0.7
- Binding of serum 2 to linear peptides of protein X4 of SARS-CoV Urbani [1]: 0.7
- Binding of serum 2 to looped/cyclic peptides of protein X4 of SARS-CoV Urbani [1]: 0.8
- Binding of serum 6 to linear peptides of protein X4 of SARS-CoV Urbani [1]: 0.9
- Binding of serum 6 to looped/cyclic peptides of protein X4 of SARS-CoV Urbani [1]: 1.3
- Binding of serum 37 to linear peptides of protein X4 of SARS-CoV Urbani [1]: 0.8
- Binding of serum 37 to looped/cyclic peptides of protein X4 of SARS-CoV Urbani [1]: 0.6
- Binding of serum 62 to linear peptides of protein X4 of SARS-CoV Urbani [1]: 0.9
- Binding of serum 62 to looped/cyclic peptides of protein X4 of SARS-CoV Urbani [1]: 0.8
- Binding of serum London to linear peptides of protein X4 of SARS-CoV Urbani [1]: 0.9
- Binding of serum London to looped/cyclic peptides of protein X4 of SARS-CoV Urbani [1]: 1.4
- Binding of serum SARS-green to linear peptides of protein X4 of SARS-CoV Urbani [1]: 0.7
- Binding of serum SARS-green to looped/cyclic peptides of protein X4 of SARS-CoV Urbani [1]: 0.2
- Binding of serum SARS-yellow to linear peptides of protein X4 of SARS-CoV Urbani [1]: 0.6
- Binding of serum SARS-yellow to looped/cyclic peptides of protein X4 of SARS-CoV Urbani [1]: 0.9
- Binding of Control Serum Blood-Bank to Looped peptides [2]: 0.9
- Binding of Control serum Blood-bank to linear peptides [2]: 1.0
- Binding of Control serum LUMC to linear peptides [2]: 0.7
- Binding of Control serum LUMC to looped peptides [2]: 0.9
- Recognition of the peptide by the rabbit serum [3]: recognized

Sequence: VASFRLFARTRSMWS
- Binding of serum 1a to linear peptides of protein M of SARS-CoV Urbani [1]: 0.7
- Binding of serum 1b to linear peptides of protein M of SARS-CoV Urbani [1]: 0.5
- Binding of serum 2 to linear peptides of protein M of SARS-CoV Urbani [1]: 0.5
- Binding of serum 6 to linear peptides of protein M of SARS-CoV Urbani [1]: 0.3
- Binding of serum 37 to linear peptides of protein M of SARS-CoV Urbani [1]: 0.7
- Binding of serum 62 to linear peptides of protein M of SARS-CoV Urbani [1]: 0.8
- Binding of serum London to linear peptides of protein M of SARS-CoV Urbani [1]: 0.3
- Binding of serum SARS-green to linear peptides of protein M of SARS-CoV Urbani [1]: 0.3
- Binding of serum SARS-yellow to linear peptides of protein M of SARS-CoV Urbani [1]: 0.0
- Recognition of the peptide by sera of SARS-CoV infected individuals, and form (linear, looped/cyclic) in which it is recognized [1]: recognized in looped/cyclic form
- Binding of Control Serum Blood-Bank to Looped peptides of the protein M of SARS-CoV Urbani [2]: 0.8
- Binding of Control serum Blood-bank to linear peptides of the protein M of SARS-CoV Urbani [2]: 0.7
- Binding of Control serum LUMC to linear peptides of the protein M of SARS-CoV Urbani [2]: 0.4
- Binding of Control serum LUMC to looped peptides of the protein M of SARS-CoV Urbani [2]: 0.6
- Rabbit serum linear peptides [3]: 0.8
- Rabbit serum looped peptides [3]: 0.4
